Data reported in ChEMBL document CHEMBL1136845, “Synthesis, biological activity and tubulin binding poses of 1-deoxy-9-(R)-dihydrotaxane analogs” (Bioorg Med Chem Lett, 2009).
Converted amounts (≈) assume the structure as drawn.

Tests used:
[1] = tested on: A2780; experiment: Cytotoxicity against human A2780 cells after 72 hrs by MTT assay; assay type: functional, cell-based; conditions: A2780, 72 h
[2] = tested on: A549; experiment: Cytotoxicity against human A549 cells after 72 hrs by MTT assay; assay type: functional, cell-based; conditions: A549, 72 h
[3] = Inhibition of GTP-[…] tubulin polymerization

| ED50 [3] | SMILES | IC50 [1] | IC50 [2] |
| --- | --- | --- | --- |
| 1900 nM | CC(=O)O[C@@]12CO[C@@H]1C[C@H](O)[C@]1(C)[C@@H]2[C@H](OC(=O)c2ccccc2)[C@@H]2C[C@H](OC(=O)[C@H](O)[C@@H](NC(=O)c3ccccc3)c3ccccc3)C(C)=C([C@@H](O)[C@@H]1O)C2(C)C | 0.11 ng/mL (≈ 0.138 nM) | 0.18 ng/mL (≈ 0.226 nM) |
| 520 nM | CC(=O)O[C@H]1C(=O)[C@@]2(C)[C@H]([C@H](OC(=O)c3ccccc3)[C@]3(O)C[C@H](OC(=O)[C@H](O)[C@@H](NC(=O)c4ccccc4)c4ccccc4)C(C)=C1C3(C)C)[C@]1(OC(C)=O)CO[C@@H]1C[C@@H]2O [PACLITAXEL] | 0.13 ng/mL (≈ 0.152 nM) | 0.29 ng/mL (≈ 0.34 nM) |
| 5200 nM | CC(=O)O[C@@]12CO[C@@H]1C[C@H](O)[C@]1(C)[C@@H]2[C@H](OC(=O)c2ccccc2)[C@@H]2C[C@H](OC(=O)[C@H](O)[C@@H](NC(=O)c3ccccc3)c3ccccc3)C(C)=C([C@H]3OC(C)(C)O[C@@H]31)C2(C)C | 1.54 ng/mL (≈ 1.84 nM) | 2.87 ng/mL (≈ 3.42 nM) |
